Assay results: patent US20110009403A1, “2-MORPHOLINYLPURINES AS INHIBITORS OF PI3K” (S*BIO Pte Ltd., priority 2007, published 2011)

Experiments:
mTOR = mTOR (Homo sapiens, UniProt P42345); experiment: mTOR assay (phosphorylation of 4eBP1, [γ33P]-ATP filter plate); assay type: biochemical; conditions: 10 μM ATP, 1 hour at room temperature
Description: Truncated mTOR kinase and His-tagged 4eBP1 were produced in-house. [γ^33P]-ATP was purchased from Amersham (GE Healthcare). All chemicals, unless otherwise stated, were from Sigma-Aldrich.
Phosphorylation assays were initially performed in a final volume of 20 μL in 384-well polypropylene plate (Greiner). Compounds were typically tested over the range from 100 μM to 0.006 μM, in 8 step dilutions, in duplicate. 10 μL/well of 2× Enzyme-Substrate solution (1.5 μg/mL mTOR, 40 μg/mL 4eBP1 in 1× assay buffer: 10 mM Hepes pH 7.5, 50 mM NaCl and 10 mM MnCl2) were first added to the sample plate containing 1 μL/well of test compound in neat DMSO. The reaction was initiated by adding 10 μL/well of 20 μM ATP solution (final assay concentration 10 μM ATP and 0.4 μCi/well of [γ^33P]-ATP). After 1 hour incubation at room temperature, the reaction was terminated with 40 μL/well of 20 mM EDTA/1 mM ATP solution.
50 μL/well of the stopped reaction mix was then transferred to 384-well MultiScreenHTS-PH filter plate (Millipore) pre-added with 50 μL/well of 1% phosphoric acid. The plate was washed 4 times with 120 μL/well of 0.5% phosphoric acid via vacuum filtration. Finally, 10 μL/well of Optiphase™ SuperMix liquid scintillation cocktail (Perkin Elmer) was added. After minimum 1 hour of incubation, counting was performed in a Wallac MicroBeta TriLux scintillation counter using coincidence counting mode with crosstalk correction.

PI3K p110α/p85 = molecular target: T1, PI3K p110α/p85 (Homo sapiens, UniProt P42336); experiment: PI3K assay ([γ33P]ATP, PtdIns/PtdSer coated plates); assay type: biochemical; conditions: 2 μM ATP, 1 hour at RT; read-out: IC50 (PI3Kα)
T1 construct: made in house
T1 sequence (P42336 whole entry): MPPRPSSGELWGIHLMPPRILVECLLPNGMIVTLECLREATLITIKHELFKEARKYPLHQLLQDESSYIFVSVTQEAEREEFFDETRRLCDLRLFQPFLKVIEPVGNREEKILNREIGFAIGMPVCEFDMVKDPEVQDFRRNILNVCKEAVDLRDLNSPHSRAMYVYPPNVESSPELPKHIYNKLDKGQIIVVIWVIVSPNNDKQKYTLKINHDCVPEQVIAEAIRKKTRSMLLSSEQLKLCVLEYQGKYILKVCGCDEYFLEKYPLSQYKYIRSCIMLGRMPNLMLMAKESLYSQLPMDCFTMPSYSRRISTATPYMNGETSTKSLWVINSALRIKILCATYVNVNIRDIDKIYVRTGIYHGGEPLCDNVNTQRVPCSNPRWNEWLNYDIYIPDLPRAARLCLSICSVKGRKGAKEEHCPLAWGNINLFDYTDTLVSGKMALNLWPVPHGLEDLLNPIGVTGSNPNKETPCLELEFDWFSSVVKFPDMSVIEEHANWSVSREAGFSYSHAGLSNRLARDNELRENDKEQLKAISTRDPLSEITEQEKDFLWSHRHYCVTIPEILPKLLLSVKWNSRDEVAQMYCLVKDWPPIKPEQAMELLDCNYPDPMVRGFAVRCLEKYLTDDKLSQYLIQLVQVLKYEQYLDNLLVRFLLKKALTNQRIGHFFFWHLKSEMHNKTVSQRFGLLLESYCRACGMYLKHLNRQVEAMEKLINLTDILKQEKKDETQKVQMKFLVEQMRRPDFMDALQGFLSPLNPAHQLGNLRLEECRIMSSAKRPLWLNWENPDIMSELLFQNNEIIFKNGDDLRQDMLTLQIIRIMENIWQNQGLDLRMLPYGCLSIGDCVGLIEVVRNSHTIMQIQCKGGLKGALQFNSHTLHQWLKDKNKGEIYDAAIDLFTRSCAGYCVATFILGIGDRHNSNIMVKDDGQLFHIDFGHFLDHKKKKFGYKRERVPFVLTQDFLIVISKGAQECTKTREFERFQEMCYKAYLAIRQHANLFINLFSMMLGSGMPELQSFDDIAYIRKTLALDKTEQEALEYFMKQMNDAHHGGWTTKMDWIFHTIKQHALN
T1 sequence (P27986 whole entry partner): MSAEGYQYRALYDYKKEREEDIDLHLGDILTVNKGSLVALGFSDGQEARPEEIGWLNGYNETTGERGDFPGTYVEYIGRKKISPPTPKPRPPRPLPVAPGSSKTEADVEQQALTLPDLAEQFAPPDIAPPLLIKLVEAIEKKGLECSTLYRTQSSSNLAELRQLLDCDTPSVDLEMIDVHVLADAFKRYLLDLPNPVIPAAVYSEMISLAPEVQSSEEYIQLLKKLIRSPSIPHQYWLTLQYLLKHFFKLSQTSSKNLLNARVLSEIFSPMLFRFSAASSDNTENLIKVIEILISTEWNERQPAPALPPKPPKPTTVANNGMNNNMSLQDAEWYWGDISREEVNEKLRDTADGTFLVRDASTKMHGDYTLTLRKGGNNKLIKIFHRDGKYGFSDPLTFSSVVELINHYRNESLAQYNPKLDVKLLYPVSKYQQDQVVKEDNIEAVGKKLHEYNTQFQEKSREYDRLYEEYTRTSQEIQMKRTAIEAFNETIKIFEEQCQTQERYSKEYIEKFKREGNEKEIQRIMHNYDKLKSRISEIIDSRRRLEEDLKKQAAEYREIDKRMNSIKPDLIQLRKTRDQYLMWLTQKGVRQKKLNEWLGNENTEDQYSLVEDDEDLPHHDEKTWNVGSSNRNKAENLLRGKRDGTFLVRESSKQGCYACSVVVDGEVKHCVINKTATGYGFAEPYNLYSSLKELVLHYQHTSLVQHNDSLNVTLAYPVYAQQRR
Description: Recombinant PI3K p110α/p85 was prepared in-house. Phosphatidylinositol (PtdIns), phosphotidylserine (PtdSer) and all other unspecified chemicals were purchased from Sigma-Aldrich. [γ^33P]ATP and Optiphase scintillant were obtained from Perkin Elmer.
Assays were performed in a final assay volume of 25 μL in 384-well Maxisorp plates (Nunc). Compounds were tested at 8 concentrations in 3-fold serial dilution, generally starting from 10 μM. Maxisorp plates were coated with 20 μL/well of a 1:1 mixture of PtdIns and PtdSer [0.1 mg/mL each dissolved in chloroform:ethanol (3:7)] and left overnight in a fume hood at room temperature (RT) to dry.
The enzyme reaction was created by pipetting 5 μL/well of compound (in 2.5% DMSO), 10 μL/well of enzyme (0.5 μg/mL p110α+1 μg/mL p85), and 10 μL/well of 5 μM ATP with 5 μCi/mL [γ^33P]ATP in assay buffer (final concentrations: 0.2 μg/mL p110α, 2 μM ATP, […] [γ^33P]ATP in 1× assay buffer: 100 mM Tris-HCl pH 7.0, 200 mM NaCl, 8 mM MgCl2). The reaction was incubated for 1 hour at RT and terminated with 30 μL/well of 50 mM EDTA solution. The plate was then washed twice with TBS, dried, and added with 30 μL/well of scintillant before it was counted in a MicroBeta Trilux.

mTOR, sequence (P42345 1382-2549 limits assumed): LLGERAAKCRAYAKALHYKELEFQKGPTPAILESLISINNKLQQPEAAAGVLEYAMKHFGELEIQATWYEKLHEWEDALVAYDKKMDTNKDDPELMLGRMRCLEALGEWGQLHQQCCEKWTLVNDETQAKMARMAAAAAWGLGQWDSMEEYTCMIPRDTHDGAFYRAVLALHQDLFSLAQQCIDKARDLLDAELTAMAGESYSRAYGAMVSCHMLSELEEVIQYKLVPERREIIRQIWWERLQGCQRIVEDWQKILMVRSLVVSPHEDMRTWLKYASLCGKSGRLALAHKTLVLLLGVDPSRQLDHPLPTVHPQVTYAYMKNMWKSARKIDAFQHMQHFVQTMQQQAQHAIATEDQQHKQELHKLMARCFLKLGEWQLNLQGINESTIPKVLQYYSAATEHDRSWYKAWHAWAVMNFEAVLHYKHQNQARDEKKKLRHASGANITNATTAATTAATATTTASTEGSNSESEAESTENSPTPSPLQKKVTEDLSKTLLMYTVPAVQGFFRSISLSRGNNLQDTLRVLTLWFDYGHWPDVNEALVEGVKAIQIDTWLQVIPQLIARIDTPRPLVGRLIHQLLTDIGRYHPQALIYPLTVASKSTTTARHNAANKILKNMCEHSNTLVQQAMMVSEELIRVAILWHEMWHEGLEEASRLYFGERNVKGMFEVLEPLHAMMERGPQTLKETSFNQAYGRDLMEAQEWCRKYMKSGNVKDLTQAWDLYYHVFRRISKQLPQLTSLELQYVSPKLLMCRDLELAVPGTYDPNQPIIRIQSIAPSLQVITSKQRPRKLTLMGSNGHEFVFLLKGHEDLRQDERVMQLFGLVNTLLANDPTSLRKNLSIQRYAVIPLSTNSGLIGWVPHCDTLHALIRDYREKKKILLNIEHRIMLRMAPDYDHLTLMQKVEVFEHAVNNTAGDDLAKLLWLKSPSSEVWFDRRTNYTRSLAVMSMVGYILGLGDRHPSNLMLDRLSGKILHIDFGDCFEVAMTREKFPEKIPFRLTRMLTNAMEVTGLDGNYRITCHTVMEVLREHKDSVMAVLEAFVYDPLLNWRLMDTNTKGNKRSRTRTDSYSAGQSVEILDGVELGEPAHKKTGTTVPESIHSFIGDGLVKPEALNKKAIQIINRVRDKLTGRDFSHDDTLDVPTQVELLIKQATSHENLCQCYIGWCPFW

IC50 (mTOR) [µM]	IC50 (PI3K p110α/p85) [µM]	SMILES
1 to 5	< 1	c1nc2cc(-c3nc(N4CCOCC4)nc4c3ncn4CC3CC3)ccc2[nH]1 [Compound 59]
< 1	< 1	CC(C)Cn1cnc2c(-c3cccc(O)c3)nc(N3CCOCC3)nc21 [Compound 60]
< 1	< 1	CC1CCC(n2cnc3c(-c4cccc(O)c4)nc(N4CCOCC4)nc32)CC1 (centres unmarked) [Compound 61]
1 to 5	< 1	CC(C)(C)OC(=O)N1CCC(n2cnc3c(-c4cccc5[nH]ccc45)nc(N4CCOCC4)nc32)C1 (centres unmarked) [Compound 62]
> 5	1 to 5	c1cc2[nH]nnc2cc1-c1nc(N2CCOCC2)nc2c1ncn2CC1CC1 [Compound 64]
> 5	> 5	O=c1[nH]c2ccc(-c3nc(N4CCOCC4)nc4c3ncn4CC3CC3)cc2[nH]1 [Compound 65]
< 1	< 1	CC(C)Cn1cnc2c(-c3cccc4[nH]ccc34)nc(N3CCOCC3)nc21 [Compound 66]
< 1	< 1	COCC(C)n1cnc2c(-c3cccc4[nH]ccc34)nc(N3CCOCC3)nc21 (centres unmarked) [Compound 67]
< 1	< 1	COCC(C)n1cnc2c(-c3cccc(O)c3)nc(N3CCOCC3)nc21 (centres unmarked) [Compound 68]
< 1	< 1	CCC(C)n1cnc2c(-c3cccc4[nH]ccc34)nc(N3CCOCC3)nc21 (centres unmarked) [Compound 69]
1 to 5	< 1	c1cc(-c2nc(N3CCOCC3)nc3c2ncn3CCC2OCCCO2)c2cc[nH]c2c1 [Compound 70]
< 1	1 to 5	Oc1cccc(-c2nc(N3CCOCC3)nc3c2ncn3CC2CCCCC2)c1 [Compound 72]
1 to 5	< 1	c1cc(-c2nc(N3CCOCC3)nc3c2ncn3CC2CCCCC2)c2cc[nH]c2c1 [Compound 73]
< 1	< 1	O=C(Cn1cnc2c(-c3cccc(O)c3)nc(N3CCOCC3)nc21)N1CCCC1 [Compound 75, 2-(6-(3-hydroxyphenyl)-2-morpholino-9H-purin-9-yl)-1-(pyrrolidin-1-yl)ethanone]
1 to 5	< 1	CN1CCN(C(=O)Cn2cnc3c(-c4cccc(O)c4)nc(N4CCOCC4)nc32)CC1 [Compound 76]
< 1	> 5	CC(c1ccccc1)n1cnc2c(-c3cccc4[nH]ccc34)nc(N3CCOCC3)nc21 (centres unmarked) [Compound 77]
1 to 5	< 1	COCCn1cnc2c(-c3cccc4[nH]ccc34)nc(N3CCOCC3)nc21 [Compound 79]
1 to 5	< 1	N#CCn1cnc2c(-c3cccc4[nH]ccc34)nc(N3CCOCC3)nc21 [Compound 80]
> 5	> 5	CC1CN(c2nc(-c3cccc4[nH]ccc34)c3ncn(CC#N)c3n2)CC(C)O1 (centres unmarked) [Compound 81]
1 to 5	< 1	O=C(Cn1cnc2c(-c3cccc(O)c3)nc(N3CCOCC3)nc21)N1CCOCC1 [Compound 82]
1 to 5	< 1	CC(C)NC(=O)Cn1cnc2c(-c3cccc(O)c3)nc(N3CCOCC3)nc21 [Compound 83]
1 to 5	< 1	O=C(Cn1cnc2c(-c3cccc(O)c3)nc(N3CCOCC3)nc21)NC1CC1 [Compound 84]
1 to 5	< 1	c1cc(-c2nc(N3CCOCC3)nc3c2ncn3C2CCNCC2)c2cc[nH]c2c1 [Compound 87]
< 1	< 1	CCCCN1CCC(n2cnc3c(-c4cccc(O)c4)nc(N4CCOCC4)nc32)CC1 [Compound 88]
< 1	< 1	O=C(Cn1cnc2c(-c3cccc(O)c3)nc(N3CCOCC3)nc21)Nc1ccccc1 [Compound 89]
< 1	< 1	CCC(C)n1cnc2c(-c3cccc(O)c3)nc(N3CCOCC3)nc21 (centres unmarked) [Compound 90]

IC50 (mTOR) [µM]	IC50 (PI3K p110α/p85) [µM]	SMILES
< 1	< 1	CC(C1CC1)n1cnc2c(-c3cccc4[nH]ccc34)nc(N3CCOCC3)nc21 (centres unmarked) [Compound 91]
< 1	< 1	CC(C1CC1)n1cnc2c(-c3cccc(O)c3)nc(N3CCOCC3)nc21 (centres unmarked) [Compound 92]
< 1	< 1	CCCC(=O)N1CCC(n2cnc3c(-c4cccc5[nH]ccc45)nc(N4CCOCC4)nc32)CC1 [Compound 93]
1 to 5	< 1	Oc1cccc(-c2nc(N3CCOCC3)nc3c2ncn3CCN2CCCC2)c1 [Compound 94, 3-(2-morpholino-9-(2(-pyrrolidin-1-yl)ethyl)-9H-purin-6yl)phenol]
< 1	< 1	O=C(CCN1CCCCC1)N1CCC(n2cnc3c(-c4cccc5[nH]ccc45)nc(N4CCOCC4)nc32)CC1 [Compound 95]
< 1	< 1	CC(C)(C)CC(=O)N1CCC(n2cnc3c(-c4cccc5[nH]ccc45)nc(N4CCOCC4)nc32)CC1 [Compound 96]
< 1	< 1	Oc1cccc(-c2nc(N3CCOCC3)nc3c2ncn3C2CCOC2)c1 (centres unmarked) [Compound 97]
> 5	< 1	CCN(CC)CCn1cnc2c(-c3cccc(O)c3)nc(N3CCOCC3)nc21 [Compound 98]
< 1	< 1	CC(C)n1cnc2c(-c3cccc4[nH]ccc34)nc(N3CCOCC3)nc21 [Compound 99]
1 to 5	< 1	CCC(C#N)n1cnc2c(-c3cccc4[nH]ccc34)nc(N3CCOCC3)nc21 (centres unmarked) [Compound 102]
< 1	< 1	Cc1ccc(C(=O)N2CCC(n3cnc4c(-c5cccc6[nH]ccc56)nc(N5CCOCC5)nc43)CC2)s1 [Compound 104]
< 1	< 1	O=C(Cc1cccnc1)N1CCC(n2cnc3c(-c4cccc5[nH]ccc45)nc(N4CCOCC4)nc32)CC1 [Compound 105]
< 1	< 1	O=C(Nc1ccc(Cl)cc1)N1CCC(n2cnc3c(-c4cccc5[nH]ccc45)nc(N4CCOCC4)nc32)CC1 [Compound 106]
< 1	< 1	CS(=O)(=O)N1CCN(C(=O)Cn2cnc3c(-c4cccc(O)c4)nc(N4CCOCC4)nc32)CC1 [Compound 107]
< 1	< 1	CS(=O)(=O)N1CCN(CCn2cnc3c(-c4cccc(O)c4)nc(N4CCOCC4)nc32)CC1 [Compound 108]
< 1	< 1	CCC(C)n1cnc2c(-c3cccc4[nH]ncc34)nc(N3CCOCC3)nc21 (centres unmarked) [Compound 109]
< 1	< 1	c1cc(-c2nc(N3CCOCC3)nc3c2ncn3C2CCOC2)c2cc[nH]c2c1 (centres unmarked) [Compound 110]
< 1	< 1	CS(=O)(=O)N1CCC(n2cnc3c(-c4cccc5[nH]ccc45)nc(N4CCOCC4)nc32)CC1 [Compound 111]
< 1	< 1	CCc1nc2c(-c3cccc(O)c3)nc(N3CCOCC3)nc2n1C(C)CC (centres unmarked) [Compound 112, 3-(9-sec-Butyl-8-ethyl-2-morpholin-4-yl-9H-purin-6-yl)-phenol]
< 1	< 1	CCC(C)n1c(C)nc2c(-c3cccc(O)c3)nc(N3CCOCC3)nc21 (centres unmarked) [Compound 113]
< 1	< 1	CCC(C)n1c(Br)nc2c(-c3cccc(O)c3)nc(N3CCOCC3)nc21 (centres unmarked) [Compound 114]
> 5	> 5	Oc1cccc(-c2nc(N3CCOCC3)nc3c2nc(-c2cccs2)n3C2CCCCO2)c1 (centres unmarked) [Compound 116]
> 5	< 1	Oc1cccc(-c2nc(N3CCOCC3)nc3[nH]c(-c4cccs4)nc23)c1 [Compound 117]
< 1	< 1	CCSc1nc2c(-c3cccc(O)c3)nc(N3CCOCC3)nc2n1C(C)CC (centres unmarked) [Compound 119]
< 1	< 1	CCCCNc1nc2c(-c3cccc(O)c3)nc(N3CCOCC3)nc2n1C(C)CC (centres unmarked) [Compound 120]
< 1	< 1	CCC(C)n1c(N(C)C)nc2c(-c3cccc(O)c3)nc(N3CCOCC3)nc21 (centres unmarked) [Compound 121]
